# Results reported in patent US9695155B2, “Herbicidal substituted pyrimidinyloxy benzene compounds” (E. I. DU PONT DE NEMOURS AND COMPANY, priority 2013, dated 2017).
# What was measured:
# soybean = experiment: Test C preemergence; assay type: in vivo, Glycine max; settings: Glycine max, pre-emergence, preemergence, read-out: Soybean plant response rating
# Procedure, shortened: (§1)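 Seeds were sown in loam–sand blend and sprayed preemergence, while plants at 1- to 4-leaf stage (2–18 cm) in peat-based medium received postemergence sprays; test chemicals were formulated in a non-phytotoxic solvent with surfactant. After 13–15 days in a greenhouse, injury was rated visually against controls, 0 (no effect) to 100 (complete control).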
# yellow nutsedge = experiment: Test C postemergence; assay type: in vivo, Cyperus esculentus
# Procedure, shortened: as §1
# morningglory = experiment: Test C preemergence; assay type: in vivo, Ipomoea coccinea; settings: Ipomoea, pre-emergence, preemergence, read-out: Morningglory plant response rating
# Procedure, shortened: as §1
# galium = experiment: Test C postemergence; assay type: in vivo, Galium aparine; settings: Galium, post-emergence
# Procedure, shortened: as §1
# corn = experiment: Test A postemergence; assay type: in vivo, Zea mays; settings: Zea mays, post-emergence, 240 h, 0 to 100 scale where 0 is no effect and 100 is complete control
# Procedure, shortened: (§2)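 Pre- and postemergence greenhouse screen. Soil: loam + sand. Spray carrier: solvent mixture, non-phytotoxic, with surfactant. Post timing at 1–2 leaves, height 2–10 cm. Readout: visual injury on a 0–100 scale roughly 10 days after application, untreated plants as reference.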
# wheat, winter [1] = experiment: Test C preemergence; assay type: in vivo, Triticum aestivum; settings: Triticum aestivum, pre-emergence, preemergence, read-out: Wheat plant response rating
# Procedure, shortened: as §1
# ragweed [2] = experiment: Test A postemergence; assay type: in vivo, Ambrosia elatior; settings: 0 to 100 scale where 0 is no effect and 100 is complete control
# Procedure, shortened: as §2
# kochia [3] = experiment: Test A postemergence; assay type: in vivo, Kochia scoparia; settings: 0 to 100 scale where 0 is no effect and 100 is complete control
# Procedure, shortened: as §2
# kochia [4] = experiment: Test A preemergence; assay type: in vivo, Kochia scoparia; settings: 0 to 100 scale where 0 is no effect and 100 is complete control
# Procedure, shortened: as §2
# barnyardgrass [5] = experiment: Test C postemergence; assay type: in vivo, Echinochloa crus-galli; settings: Echinochloa crus-galli, post-emergence
# Procedure, shortened: as §1
# wild oat = experiment: Test C postemergence; assay type: in vivo, Avena fatua
# Procedure, shortened: as §1
# velvetleaf = experiment: Test C preemergence; assay type: in vivo, Abutilon theophrasti; settings: Abutilon theophrasti, pre-emergence, preemergence, read-out: Velvetleaf plant response rating
# Procedure, shortened: as §1
# ragweed [6] = experiment: Test C postemergence; assay type: in vivo, Ambrosia elatior
# Procedure, shortened: as §1
# waterhemp = experiment: Test C postemergence; assay type: in vivo, Amaranthus rudis
# Procedure, shortened: as §1
# Italian ryegrass = experiment: Test C preemergence; assay type: in vivo, Lolium multiflorum; settings: Lolium multiflorum, pre-emergence, preemergence, read-out: Ryegrass, Italian plant response rating
# Procedure, shortened: as §1
# barnyardgrass [7] = experiment: Test A postemergence; assay type: in vivo, Echinochloa crus-galli; settings: Echinochloa crus-galli, post-emergence, 240 h, 0 to 100 scale where 0 is no effect and 100 is complete control
# Procedure, shortened: as §2
# wheat, winter [8] = experiment: Test C postemergence; assay type: in vivo, Triticum aestivum
# Procedure, shortened: as §1
# [9] = 16 g ai/ha, scale 0 to 100 (0 no effect, 100 complete control)
# [10] = 62 g ai/ha, scale 0 (no effect) to 100 (complete control)
# [11] = 125 g ai/ha, scale 0 (no effect) to 100 (complete control)
# [12] = 31 g ai/ha, postemergence, visual rating, scale 0 to 100 (0 no effect, 100 complete control), 13 to 15 days
compound,measurement,setting,value
"FC(F)c1cn(-c2ccccc2Oc2ncc(Cl)cn2)nn1 [Compound 147, 5-chloro-2-[2-[4-(difluoromethyl)-1H-1,2,3-triazol-1-yl]phenoxy]pyrimidine]",plant injury at 16 g/ha,soybean; [9],85%
same,plant injury at 62 g/ha,soybean; [10],95%
same,plant injury at 125 g/ha,soybean; [11],95%
same,"Nutsedge, Yellow plant response rating",yellow nutsedge; [12],0
same,pest or weed control at 16 g/ha,"yellow nutsedge; Cyperus, post-emergence, 16 g ai/ha, postemergence, 0 is no effect, 100 is complete control, read-out: Plant response rating (0 to 100), Nutsedge, Yellow",0%
same,pest or weed control at 125 g/ha,"yellow nutsedge; Cyperus, post-emergence, 125 g ai/ha, postemergence, visual rating, scale 0 to 100 (0 no effect, 100 complete control), read-out: Plant response rating, Nutsedge, Yellow",5%
same,pest or weed control at 62 g/ha,"yellow nutsedge; Cyperus, post-emergence, Postemergence, 62 g ai/ha, scale 0 to 100 (0 no effect, 100 complete control), read-out: Plant response rating, Nutsedge, Yellow",0%
same,pest or weed control at 16 g/ha,morningglory; [9],40%
same,pest or weed control at 62 g/ha,morningglory; [10],95%
same,pest or weed control at 125 g/ha,morningglory; [11],100%
same,pest or weed control at 16 g/ha,"galium; 16 g ai/ha, postemergence, 0 is no effect, 100 is complete control, read-out: Plant response rating (0 to 100), Galium",85%
same,pest or weed control at 31 g/ha,"galium; 31 g ai/ha, postemergence, visual rating, scale 0 to 100 (0 no effect, 100 complete control), 13 to 15 days, read-out: Galium plant response rating",90%
same,pest or weed control at 125 g/ha,"galium; 125 g ai/ha, postemergence, visual rating, scale 0 to 100 (0 no effect, 100 complete control), read-out: Plant response rating, Galium",90%
same,pest or weed control at 62 g/ha,"galium; Postemergence, 62 g ai/ha, scale 0 to 100 (0 no effect, 100 complete control), read-out: Plant response rating, Galium",90%
same,plant injury at 125 g/ha,"corn; 125 g ai/ha, read-out: Corn plant response rating",40%
same,"Corn plant response rating (crop injury, 0 = no effect, 100 = complete kill) at 500 g/ha",corn; 500 g ai/ha,90%
same,plant injury at 16 g/ha,"wheat, winter [1]; [9]",0%
same,plant injury at 62 g/ha,"wheat, winter [1]; [10]",0%
same,plant injury at 125 g/ha,"wheat, winter [1]; [11]",25%
same,Ragweed plant response rating,ragweed [2]; 125 g ai/ha,100
same,"Plant response rating, Ragweed",ragweed [2]; 500 g ai/ha,100
same,Kochia plant response rating,kochia [3]; 125 g ai/ha,100
same,"Plant response rating, Kochia",kochia [3]; 500 g ai/ha,100
same,"Plant response rating, Kochia",kochia [4]; 125 g ai/ha,100
same,Kochia plant response rating,kochia [4]; 500 g ai/ha,100
same,pest or weed control at 16 g/ha,"barnyardgrass [5]; 16 g ai/ha, postemergence, 0 is no effect, 100 is complete control, read-out: Plant response rating (0 to 100), Barnyardgrass",0%
same,pest or weed control at 31 g/ha,"barnyardgrass [5]; 31 g ai/ha, postemergence, visual rating, scale 0 to 100 (0 no effect, 100 complete control), 13 to 15 days, read-out: Barnyardgrass plant response rating",5%
same,pest or weed control at 125 g/ha,"barnyardgrass [5]; 125 g ai/ha, postemergence, visual rating, scale 0 to 100 (0 no effect, 100 complete control), read-out: Plant response rating, Barnyardgrass",10%
same,pest or weed control at 62 g/ha,"barnyardgrass [5]; Postemergence, 62 g ai/ha, scale 0 to 100 (0 no effect, 100 complete control), read-out: Plant response rating, Barnyardgrass",5%
same,"Oat, Wild plant response rating",wild oat; [12],0
same,pest or weed control at 16 g/ha,"wild oat; Avena fatua, post-emergence, 16 g ai/ha, postemergence, 0 is no effect, 100 is complete control, read-out: Plant response rating (0 to 100), Oat, Wild",0%
same,pest or weed control at 125 g/ha,"wild oat; Avena fatua, post-emergence, 125 g ai/ha, postemergence, visual rating, scale 0 to 100 (0 no effect, 100 complete control), read-out: Plant response rating, Oat, Wild",5%
same,pest or weed control at 62 g/ha,"wild oat; Avena fatua, post-emergence, Postemergence, 62 g ai/ha, scale 0 to 100 (0 no effect, 100 complete control), read-out: Plant response rating, Oat, Wild",0%
same,pest or weed control at 16 g/ha,velvetleaf; [9],100%
same,pest or weed control at 62 g/ha,velvetleaf; [10],100%
same,pest or weed control at 125 g/ha,velvetleaf; [11],100%
same,Ragweed plant response rating,ragweed [6]; [12],65
same,pest or weed control at 16 g/ha,"ragweed [6]; Ambrosia artemisiifolia, post-emergence, 16 g ai/ha, postemergence, 0 is no effect, 100 is complete control, read-out: Plant response rating (0 to 100), Ragweed",40%
same,pest or weed control at 125 g/ha,"ragweed [6]; Ambrosia artemisiifolia, post-emergence, 125 g ai/ha, postemergence, visual rating, scale 0 to 100 (0 no effect, 100 complete control), read-out: Plant response rating, Ragweed",85%
same,pest or weed control at 62 g/ha,"ragweed [6]; Ambrosia artemisiifolia, post-emergence, Postemergence, 62 g ai/ha, scale 0 to 100 (0 no effect, 100 complete control), read-out: Plant response rating, Ragweed",75%
same,Waterhemp plant response rating,waterhemp; [12],55
same,pest or weed control at 16 g/ha,"waterhemp; Amaranthus tuberculatus, post-emergence, 16 g ai/ha, postemergence, 0 is no effect, 100 is complete control, read-out: Plant response rating (0 to 100), Waterhemp",40%
same,pest or weed control at 125 g/ha,"waterhemp; Amaranthus tuberculatus, post-emergence, 125 g ai/ha, postemergence, visual rating, scale 0 to 100 (0 no effect, 100 complete control), read-out: Plant response rating, Waterhemp",70%
same,pest or weed control at 62 g/ha,"waterhemp; Amaranthus tuberculatus, post-emergence, Postemergence, 62 g ai/ha, scale 0 to 100 (0 no effect, 100 complete control), read-out: Plant response rating, Waterhemp",85%
same,pest or weed control at 16 g/ha,Italian ryegrass; [9],0%
same,pest or weed control at 62 g/ha,Italian ryegrass; [10],50%
same,pest or weed control at 125 g/ha,Italian ryegrass; [11],70%
same,pest or weed control at 125 g/ha,"barnyardgrass [7]; 125 g ai/ha, read-out: Barnyardgrass plant response rating",90%
same,pest or weed control at 500 g/ha,"barnyardgrass [7]; 500 g ai/ha, read-out: Plant response rating, Barnyardgrass",90%
same,Wheat plant response rating,"wheat, winter [8]; [12]",5
same,plant injury at 16 g/ha,"wheat, winter [8]; Triticum aestivum, post-emergence, 16 g ai/ha, postemergence, 0 is no effect, 100 is complete control, read-out: Plant response rating (0 to 100), Wheat",0%
same,plant injury at 125 g/ha,"wheat, winter [8]; Triticum aestivum, post-emergence, 125 g ai/ha, postemergence, visual rating, scale 0 to 100 (0 no effect, 100 complete control), read-out: Plant response rating, Wheat",15%
same,plant injury at 62 g/ha,"wheat, winter [8]; Triticum aestivum, post-emergence, Postemergence, 62 g ai/ha, scale 0 to 100 (0 no effect, 100 complete control), read-out: Plant response rating, Wheat",10%
